What was measured:
OXYS rats = assay: Cataract and macular dystrophy in senescence-accelerated OXYS rats; format: in vivo, rat; details: for 2nd stage of cataract / 2nd stage of macular degeneration / changes in the macular area of the retina: OXYS rats age 3 months after oral course; for eyes with lens changes: OXYS rats age 3 months after oral course from 1.5 to 3 months
Experimental: The animals were housed in cages (45*35*35 cm) and kept under standard laboratory conditions (at 22±1° C., 60% relative humidity, and natural light), provided with a standard rodent diet (PK-120-1, Ltd. ‘Laboratorsnab’, Russia), and given water ad libitum. At the age of 1.5 months after preliminary pupil dilation with 1% tropicamide ophthalmic the rats were conducted through ophthalmoscopic examination using direct ophthalmoscop “Betta”, Germany. […] We use Vitamin E for a comparison with test antioxidants. Animals received the compounds on a small piece of dried bread before a regular meal, and the control group of animals received the same piece of bread without any compound. After completing the course of antioxidants the animals were retested with ophthalmoscope. To avoid human factor in the evaluation of compound effects the researcher who conducted the ophthalmoscopic examination was not told which of the animals received antioxidants. The lens state was evaluated according to the classification system accepted in clinical practice with grades ranging from 0 to 3: score 0—the lens is clear; score 1—spotted weak cloudiness; score 2—multiple spots of cloudiness and score 3—intense cloudiness of the lens core and nucleus.

cell culture = details: cited from earlier work
[1] = Accumulation of MitoQ in tissues when fed to animals (prior art); format: in vivo; details: feeding to animals
Experimental: It should also be noted that despite some promising observations concerning the MitoQ action, there are several results and calculations that cast doubt on the possibility of practical application of this compound. For example, it was shown in experiments with cell culture that MitoQ provides its antioxidant and anti-apoptotic action at concentration about 1 μM in the medium. It means that MitoQ concentrations inside the mitochondria should be 1 mM provided that membrane potential is about 180 mV. On the other hand, it was shown by Smith R A, Porteous C M, Gane A M, Murphy M P, Proc Natl Acad Sci USA, 2003, 100(9):5407-12 when feeding MitoQ to animals, the accumulation of MitoQ in the most oxidative stress sensitive tissues (heart and brain) amounts up to 100 pmoles/gram, which corresponds to the MitoQ concentration inside heart mitochondria equal to 100 nM. This is more than 1000 times lower than the concentration shown to be efficient in the cell culture experiments. Formally, the concentration can be raised by the increase of amounts of MitoQ fed to animals, but this is, in fact, not possible due to the toxicity of the compound.

[2] = feeding to animals; cited from earlier work
Hela cells [3] = test system: Hela cells
cells in culture = details: cited from earlier work
Yarrowia lipolytica = assay: Protection of yeast cells from death caused by hydrogen peroxide; format: cell-based; details: FIG. 14; α-tocopherol 25 μM
Hela cells [4] = assay: Transmission of apoptotic signal between inducer and recipient slides; format: cell-based, human; details: 2500 E/ml added to medium for joint incubation
Experimental: HeLa cells were used in these experiments. Cells grown on a glass slide were treated with different apoptosis-inducing agents (tumor necrosis factor (TNF), staurosporine, H2O2) for 3 h. Then the glass slide with cells (inducer) was washed to remove these reagents and placed into Petri plate to come into contact with glass slide (recipient) with cells grown in the absence of any apoptosis-inducing agent. After 16-18 h of subsequent growth and staining the cells with Hoechst 33342 as described above, apoptosis at both glass slides was analyzed.
Thus the main mediator of apoptosis signal was H2O2.

## [Br-].[K+] [KBr]
OXYS rats
  2nd stage of cataract: 57%
  2nd stage of macular degeneration: 13%
  changes in the macular area of the retina: 87%
  eyes with lens changes: 93%

## COC1=C(OC)C(=O)C(CCCCCCCCCC[P+](c2ccccc2)(c2ccccc2)c2ccccc2)=C(C)C1=O [MitoQ]
Cell culture
  concentration in the medium giving antioxidant and anti-apoptotic action: about 1 μM
[1]
  corresponding concentration inside heart mitochondria: 100 nM
[2]
  accumulation in heart and brain: up to 100 pmoles/gram
Hela cells [3]; 100 μM hydrogen peroxide
  LD50 in the presence of hydrogen peroxide: 4 µM
Hela cells [3]; 2 h of incubation, no hydrogen peroxide
  LD50 (concentrations at which 50% cells die): 7 µM

## Cc1c(C)c2c(c(C)c1O)CCC(C)(CC[P+](c1ccccc1)(c1ccccc1)c1ccccc1)O2 (stereo not drawn) [MitoVitE]
Cells in culture
  concentration with no toxic effect on cells in culture: 10 µM
Cells in culture; effect retained in the presence of uncoupler FCCP
  prevention of apoptosis in cultured cells: able to prevent apoptosis in cultured cells

## C[C@@H]1C[C@@H]([C@H](O)CC2CC(=O)NC(=O)C2)C(=O)[C@@H](C)C1 [cycloheximide D, reference compound]
Yarrowia lipolytica
  effect on survival compared among protectants: very similar

## Cc1c(C)c2c(c(C)c1O)CC[C@@](C)(CCC[C@H](C)CCC[C@H](C)CCCC(C)C)O2 [tocopherol, α-tocopherol, reference compound]
Yarrowia lipolytica
  effect on survival compared among protectants: very similar

## CC(=O)Oc1c(C)c(C)c2c(c1C)CCC(C)(CCC[C@H](C)CCC[C@H](C)CCCC(C)C)O2 (stereo partly drawn) [vitamin E, alfa-tocopherol acetate]
OXYS rats
  2nd stage of cataract: 12%
  2nd stage of macular degeneration: 8%
  changes in the macular area of the retina: 54%
  eyes with lens changes: 58%

B1: catalase: catalase (2500 E/ml) added into the medium for joint incubation (protein, UniProt P00432 2-527, looked up)
Catalase: ADNRDPASDQMKHWKEQRAAQKPDVLTTGGGNPVGDKLNSLTVGPRGPLLVQDVVFTDEMAHFDRERIPERVVHAKGAGAFGYFEVTHDITRYSKAKVFEHIGKRTPIAVRFSTVAGESGSADTVRDPRGFAVKFYTEDGNWDLVGNNTPIFFIRDALLFPSFIHSQKRNPQTHLKDPDMVWDFWSLRPESLHQVSFLFSDRGIPDGHRHMNGYGSHTFKLVNANGEAVYCKFHYKTDQGIKNLSVEDAARLAHEDPDYGLRDLFNAIATGNYPSWTLYIQVMTFSEAEIFPFNPFDLTKVWPHGDYPLIPVGKLVLNRNPVNYFAEVEQLAFDPSNMPPGIEPSPDKMLQGRLFAYPDTHRHRLGPNYLQIPVNCPYRARVANYQRDGPMCMMDNQGGAPNYYPNSFSAPEHQPSALEHRTHFSGDVQRFNSANDDNVTQVRTFYLKVLNEEQRKRLCENIAGHLKDAQLFIQKKAVKNFSDVHPEYGSRIQALLDKYNEEKPKNAVHTYVQHGSHLSAREKANL
Hela cells [4]
  apoptosis of recipient cells: prevented apoptosis of recipient cells

Source: patent US9328130B2, “Method of treating organism by biologically active compounds specifically delivered into mitochondria, pharmaceutical composition required for the use of the method and a compound applicable for this purpose” (MITOTECH S.A., priority 2005, dated 2016)
